Measured values as given in ChEMBL document CHEMBL5500372, “Novel natural osthole-inspired amphiphiles as membrane targeting antibacterials against methicillin-resistant Staphylococcus aureus (MRSA)” (Eur J Med Chem, 2024).
The source made the active and inactive calls. No cut-off for these calls is given here.

Tests used:
[1] = system: Staphylococcus aureus; test: Antibacterial activity against Staphylococcus aureus ATCC 29213 at 128 ug/ml measured after 20 passages by CLSI micro broth dilution method; assay type: functional, organism-based; settings: dose 128.0 µg/ml
[2] = system: Cell membrane; test: Induction of cytoplasmic membrane permeabilization in methicillin-resistant Staphylococcus aureus clinical isolate 16 assessed as increase in fluorescence intensity measured after 35 mins by SYTOX green dye based fluorescence analysis
[3] = system: Cell membrane; test: Induction of cytoplasmic membrane depolarization in methicillin-resistant Staphylococcus aureus clinical isolate 16 assessed as increase in fluorescence intensity measured after 35 mins by DiSC3-5 dye based fluorescence method; assay type: cell membranes
[4] = system: Staphylococcus aureus; test: Antibacterial activity against Staphylococcus aureus ATCC 29213 measured after 18 hrs by CLSI based broth microdilution method; assay type: functional
[5] = system: Staphylococcus aureus; test: Antibacterial activity against methicillin-resistant Staphylococcus aureus clinical isolate 17 measured after 18 hrs by CLSI based broth microdilution method; assay type: functional
[6] = system: Staphylococcus aureus; test: Antibacterial activity against methicillin-resistant Staphylococcus aureus clinical isolate 13 measured after 18 hrs by CLSI based broth microdilution method; assay type: functional
[7] = system: Staphylococcus aureus; test: Antibacterial activity against methicillin-resistant Staphylococcus aureus clinical isolate 23 measured after 18 hrs by CLSI based broth microdilution method; assay type: functional
[8] = system: Staphylococcus aureus; test: Antibacterial activity against methicillin-resistant Staphylococcus aureus clinical isolate 16 measured after 18 hrs by CLSI based broth microdilution method; assay type: functional
[9] = system: Staphylococcus aureus; test: Antibacterial activity against methicillin-resistant Staphylococcus aureus clinical isolate 21 measured after 18 hrs by CLSI based broth microdilution method; assay type: functional
[10] = system: Staphylococcus aureus; test: Antibacterial activity against methicillin-resistant Staphylococcus aureus clinical isolate 11 measured after 18 hrs by CLSI based broth microdilution method; assay type: functional
[11] = system: Staphylococcus aureus; test: Antibacterial activity against methicillin-resistant Staphylococcus aureus clinical isolate 12 measured after 18 hrs by CLSI based broth microdilution method; assay type: functional
[12] = system: Staphylococcus aureus; test: Antibacterial activity against methicillin-resistant Staphylococcus aureus clinical isolate 20 measured after 18 hrs by CLSI based broth microdilution method; assay type: functional
[13] = system: Staphylococcus aureus; test: Antibacterial activity against methicillin-resistant Staphylococcus aureus clinical isolate 22 measured after 18 hrs by CLSI based broth microdilution method; assay type: functional
[14] = system: Staphylococcus aureus; test: Antibacterial activity against methicillin-resistant Staphylococcus aureus clinical isolate 14 measured after 18 hrs by CLSI based broth microdilution method; assay type: functional
[15] = system: Escherichia coli; test: Antibacterial activity against Escherichia coli ATCC 25922 measured after 18 hrs by CLSI based broth microdilution method; assay type: functional
[16] = Hemolytic activity in sheep erythrocyte assessed as hemolysis incubated for 1 hr by absorbance based analysis; assay type: toxicity, cell-based, Ovis aries; settings: sheep erythrocytes
[17] = Selectivity index, ratio of HC50 for hemolytic activity in sheep erythrocyte assessed as hemolysis to MIC for antibacterial activity against Staphylococcus aureus ATCC 29213; assay type: toxicity; settings: sheep erythrocytes, read-out: Selectivity Index

SMILES | Activity [1] | Activity [2] | Activity [3] | MIC [4] [µg/mL] | MIC [5] [µg/mL] | MIC [6] [µg/mL] | MIC [7] [µg/mL] | MIC [8] [µg/mL] | MIC [9] [µg/mL] | MIC [10] [µg/mL] | MIC [11] [µg/mL] | MIC [12] [µg/mL] | MIC [13] [µg/mL] | MIC [14] [µg/mL] | MIC [15] [µg/mL] | HC50 at 1 h [16] [µg/mL] | selectivity ratio [17]
CCn1cc(C(=O)O)c(=O)c2cc(F)c(N3CCNCC3)cc21 | Active |  |  |  |  |  |  |  |  |  |  |  |  |  |  |  | 
CC[C@H](C)[C@H](NC(=O)CN)C(=O)NCC(=O)N[C@@H](C)C(=O)N[C@H](C(=O)N[C@@H](CC(C)C)C(=O)N[C@@H](CCCCN)C(=O)N[C@H](C(=O)N[C@@H](CC(C)C)C(=O)N[C@H](C(=O)N[C@H](C(=O)NCC(=O)N[C@@H](CC(C)C)C(=O)N1CCC[C@H]1C(=O)N[C@@H](C)C(=O)N[C@@H](CC(C)C)C(=O)N[C@H](C(=O)N[C@@H](CO)C(=O)N[C@@H](Cc1c[nH]c2ccccc12)C(=O)N[C@H](C(=O)N[C@@H](CCCCN)C(=O)N[C@@H](CCCNC(=N)N)C(=O)N[C@@H](CCCCN)C(=O)N[C@@H](CCCNC(=N)N)C(=O)N[C@@H](CCC(N)=O)C(=O)N[C@@H](CCC(N)=O)C(N)=O)[C@@H](C)CC)[C@@H](C)CC)[C@@H](C)O)[C@@H](C)O)C(C)C)C(C)C |  | Active | Active |  |  |  |  |  |  |  |  |  |  |  |  |  | 
CCCNC(=O)C[N+](C)(C)CCCCOc1ccc2ccc(=O)oc2c1CC=C(C)C.[Br-] |  |  |  | 64 | 64 | 64 | 64 | 32 | 64 | 64 | 64 | 64 | 64 | 32 | 128 | > 1280 | > 20
CCCCNC(=O)C[N+](C)(C)CCCCCOc1ccc2ccc(=O)oc2c1CC=C(C)C.[Br-] |  |  |  | 8 | 8 | 8 | 8 | 8 | 8 | 8 | 16 | 8 | 8 | 8 | 128 | 798 | 99.8
CC(C)=CCc1c(OCCC[N+](C)(C)CC(=O)N(C(C)C)C(C)C)ccc2ccc(=O)oc12.[Br-] |  |  |  | 16 | 16 | 16 | 16 | 16 | 16 | 16 | 16 | 32 | 16 | 16 | 128 | > 640 | > 40
CCNC(=O)C[N+](C)(C)CCCCOc1ccc2ccc(=O)oc2c1CC=C(C)C.[Br-] |  |  |  | 128 | 128 | 128 | 128 | 128 | 128 | 128 | 128 | 64 | 128 | 128 | 128 | > 1280 | > 10
CCCCNC(=O)C[N+](C)(C)CCCCOc1ccc2ccc(=O)oc2c1CC=C(C)C.[Br-] |  |  |  | 32 | 16 | 32 | 16 | 16 | 16 | 16 | 32 | 16 | 16 | 16 | 128 | > 1280 | > 40
CC(C)=CCc1c(OCCCCC[N+](C)(C)CC(=O)N(C(C)C)C(C)C)ccc2ccc(=O)oc12.[Br-] |  |  |  | 4 | 4 | 8 | 4 | 4 | 4 | 8 | 8 | 4 | 4 | 4 | > 128 | 736 | 184
CC(C)=CCc1c(OCCCC[N+](C)(C)CC(=O)N(C(C)C)C(C)C)ccc2ccc(=O)oc12.[Br-] |  |  |  | 16 | 16 | 32 | 16 | 16 | 16 | 16 | 32 | 16 | 16 | 16 | 128 | 1270 | 79.2
CCN(CC)C(=O)C[N+](C)(C)CCCCOc1ccc2ccc(=O)oc2c1CC=C(C)C.[Br-] |  |  |  | 64 | 64 | 128 | 64 | 64 | 64 | 128 | 128 | 64 | 64 | 64 | > 128 | 1220 | 19
CCCCCNC(=O)C[N+](C)(C)CCCCCOc1ccc2ccc(=O)oc2c1CC=C(C)C.[Br-] |  |  |  | 4 | 4 | 4 | 2 | 2 | 2 | 4 | 4 | 64 | 2 | 2 | 64 | > 1280 | > 320
CCN(CC)C(=O)C[N+](C)(C)CCCOc1ccc2ccc(=O)oc2c1CC=C(C)C.[Br-] |  |  |  | 128 | 128 | 128 | 128 | 128 | 128 | 128 | 128 | 128 | 128 | 128 | 128 | > 1280 | > 10
